From PubChem BioAssay (NCI)
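Each compound was tested at five concentrations against cells in 96-well plates for 48 hours. Here, GI50 denotes the concentration required for 50% inhibition of growth. Definition used: TGI = concentration required for complete inhibition of growth.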

Legend:
Assay in all cases: inhibition of tumour cell growth, NCI panel, 48 h
786-0 renal = tested on: 786-0 renal
A498 renal = tested on: A498 renal
A549 NSCLC = tested on: A549 NSCLC
ACHN renal = tested on: ACHN renal
BT-549 breast = tested on: BT-549 breast
CAKI-1 renal = tested on: CAKI-1 renal
CCRF-CEM leukemia = tested on: CCRF-CEM leukemia
COLO 205 colon = tested on: COLO 205 colon
DU-145 prostate = tested on: DU-145 prostate
EKVX NSCLC = tested on: EKVX NSCLC
HCC-2998 colon = tested on: HCC-2998 colon
HCT-116 colon = tested on: HCT-116 colon
HCT-15 colon = tested on: HCT-15 colon
HL-60(TB) leukemia = tested on: HL-60(TB) leukemia
HOP-62 NSCLC = tested on: HOP-62 NSCLC
HOP-92 NSCLC = tested on: HOP-92 NSCLC
HS 578T breast = tested on: HS 578T breast
HT29 colon = tested on: HT29 colon
IGROV1 ovarian = tested on: IGROV1 ovarian
K-562 leukemia = tested on: K-562 leukemia
KM12 colon = tested on: KM12 colon
LOX IMVI melanoma = tested on: LOX IMVI melanoma
M14 melanoma = tested on: M14 melanoma
MALME-3M melanoma = tested on: MALME-3M melanoma
MCF7 breast = tested on: MCF7 breast
MDA-MB-231 breast = tested on: MDA-MB-231 breast
MDA-MB-435 = tested on: MDA-MB-435
MDA-MB-468 breast = tested on: MDA-MB-468 breast
MOLT-4 leukemia = tested on: MOLT-4 leukemia
NCI-H226 lung = tested on: NCI-H226 lung
NCI-H23 lung = tested on: NCI-H23 lung
NCI-H460 lung = tested on: NCI-H460 lung
NCI-H522 lung = tested on: NCI-H522 lung
NCI/ADR-RES ovarian = tested on: NCI/ADR-RES ovarian
OVCAR-3 ovarian = tested on: OVCAR-3 ovarian
OVCAR-4 ovarian = tested on: OVCAR-4 ovarian
OVCAR-5 ovarian = tested on: OVCAR-5 ovarian
OVCAR-8 ovarian = tested on: OVCAR-8 ovarian
PC-3 prostate = tested on: PC-3 prostate
RPMI-8226 leukemia = tested on: RPMI-8226 leukemia
RXF 393 renal = tested on: RXF 393 renal
SF-268 CNS = tested on: SF-268 CNS
SF-295 CNS = tested on: SF-295 CNS
SF-539 CNS = tested on: SF-539 CNS
SK-MEL-2 melanoma = tested on: SK-MEL-2 melanoma
SK-MEL-28 melanoma = tested on: SK-MEL-28 melanoma
SK-MEL-5 melanoma = tested on: SK-MEL-5 melanoma
SK-OV-3 ovarian = tested on: SK-OV-3 ovarian
SN12C renal = tested on: SN12C renal
SNB-19 CNS = tested on: SNB-19 CNS
SNB-75 CNS = tested on: SNB-75 CNS
SR leukemia = tested on: SR leukemia
SW-620 colon = tested on: SW-620 colon
T-47D breast = tested on: T-47D breast
TK-10 renal = tested on: TK-10 renal
U251 CNS = tested on: U251 CNS
UACC-257 melanoma = tested on: UACC-257 melanoma
UACC-62 melanoma = tested on: UACC-62 melanoma
UO-31 renal = tested on: UO-31 renal

In the case of `COc1ccc2[nH]c(O)c(N=NC(=O)COc3ccc(NC(=O)Nc4ccc(Cl)cc4)cc3)c2c1`, the GI50 (786-0 renal) was 7.32 µM, the TGI (786-0 renal) was 24.9 µM and the GI50 (A498 renal) was 17.1 µM. The TGI (A498 renal) was 31.8 µM, the GI50 (A549 NSCLC) was 8.39 µM and the TGI (A549 NSCLC) was 44.4 µM. For the same compound, the GI50 (ACHN renal) was 19.3 µM, the TGI (ACHN renal) was 58.8 µM and the GI50 (BT-549 breast) was 12.1 µM. The TGI (BT-549 breast) was 26.6 µM, the GI50 (CAKI-1 renal) was 16.6 µM and the TGI (CAKI-1 renal) was 33.7 µM. It also gave a GI50 (CCRF-CEM leukemia) of 5.39 µM, a TGI (CCRF-CEM leukemia) of 26.3 µM and a GI50 (COLO 205 colon) of 3.63 µM. The TGI (COLO 205 colon) was 13.2 µM, the GI50 (DU-145 prostate) was 4.14 µM and the TGI (DU-145 prostate) was 20.7 µM. It also gave a GI50 (EKVX NSCLC) of 18.7 µM, a TGI (EKVX NSCLC) of over 100 µM and a GI50 (HCC-2998 colon) of 5.33 µM. The TGI (HCC-2998 colon) was 25.9 µM, the GI50 (HCT-116 colon) was 2.96 µM and the TGI (HCT-116 colon) was 11.5 µM. For the same compound, the GI50 (HCT-15 colon) was over 100 µM, the TGI (HCT-15 colon) was over 100 µM and the GI50 (HL-60(TB) leukemia) was 23.6 µM. For the same compound, the TGI (HL-60(TB) leukemia) was over 100 µM, the GI50 (HOP-62 NSCLC) was 2.54 µM and the TGI (HOP-62 NSCLC) was 6.4 µM. For the same compound, the GI50 (HOP-92 NSCLC) was 2.43 µM, the TGI (HOP-92 NSCLC) was 7.31 µM and the GI50 (HS 578T breast) was 2.8 µM. For the same compound, the TGI (HS 578T breast) was 13.4 µM, the GI50 (HT29 colon) was 3.22 µM and the TGI (HT29 colon) was 14 µM. It also gave a GI50 (IGROV1 ovarian) of 8.74 µM, a TGI (IGROV1 ovarian) of 21.6 µM and a GI50 (K-562 leukemia) of 5.36 µM. It also gave a TGI (K-562 leukemia) of over 100 µM, a GI50 (KM12 colon) of 3.21 µM and a TGI (KM12 colon) of 13.4 µM. It also gave a GI50 (LOX IMVI melanoma) of 1.87 µM, a TGI (LOX IMVI melanoma) of 3.81 µM and a GI50 (M14 melanoma) of 2.61 µM. It also gave a TGI (M14 melanoma) of 7.88 µM, a GI50 (MALME-3M melanoma) of 1.77 µM and a TGI (MALME-3M melanoma) of 3.61 µM. The GI50 (MCF7 breast) was 2.88 µM, the TGI (MCF7 breast) was 10.2 µM and the GI50 (MDA-MB-231 breast) was 1.8 µM. The TGI (MDA-MB-231 breast) was 3.75 µM, the GI50 (MDA-MB-435) was 1.75 µM and the TGI (MDA-MB-435) was 4.77 µM. For the same compound, the GI50 (MDA-MB-468 breast) was 1.85 µM, the TGI (MDA-MB-468 breast) was 4.61 µM and the GI50 (MOLT-4 leukemia) was 9.72 µM. The TGI (MOLT-4 leukemia) was 51.2 µM, the GI50 (NCI-H226 lung) was 3.74 µM and the TGI (NCI-H226 lung) was 16.8 µM. The GI50 (NCI-H23 lung) was 2.68 µM, the TGI (NCI-H23 lung) was 8.54 µM and the GI50 (NCI-H460 lung) was 1.84 µM. It also gave a TGI (NCI-H460 lung) of 3.97 µM, a GI50 (NCI-H522 lung) of 2.23 µM and a TGI (NCI-H522 lung) of 5.85 µM. The GI50 (NCI/ADR-RES ovarian) was over 100 µM, the TGI (NCI/ADR-RES ovarian) was over 100 µM and the GI50 (OVCAR-3 ovarian) was 2.21 µM. The TGI (OVCAR-3 ovarian) was 6.34 µM, the GI50 (OVCAR-4 ovarian) was 2.94 µM and the TGI (OVCAR-4 ovarian) was 11 µM. It also gave a GI50 (OVCAR-5 ovarian) of 6.34 µM, a TGI (OVCAR-5 ovarian) of 20 µM and a GI50 (OVCAR-8 ovarian) of 10.5 µM. For the same compound, the TGI (OVCAR-8 ovarian) was 37.9 µM, the GI50 (PC-3 prostate) was 3.39 µM and the TGI (PC-3 prostate) was 14.9 µM. It also gave a GI50 (RPMI-8226 leukemia) of 6.58 µM, a TGI (RPMI-8226 leukemia) of 68.8 µM and a GI50 (RXF 393 renal) of 6.26 µM. The TGI (RXF 393 renal) was 22.2 µM, the GI50 (SF-268 CNS) was 3.3 µM and the TGI (SF-268 CNS) was 10.4 µM. For the same compound, the GI50 (SF-295 CNS) was 6.63 µM, the TGI (SF-295 CNS) was 20.1 µM and the GI50 (SF-539 CNS) was 2.42 µM. For the same compound, the TGI (SF-539 CNS) was 6.86 µM, the GI50 (SK-MEL-2 melanoma) was 2.08 µM and the TGI (SK-MEL-2 melanoma) was 4.41 µM. It also gave a GI50 (SK-MEL-28 melanoma) of 1.81 µM, a TGI (SK-MEL-28 melanoma) of 3.56 µM and a GI50 (SK-MEL-5 melanoma) of 5.9 µM. For the same compound, the TGI (SK-MEL-5 melanoma) was 18.9 µM, the GI50 (SK-OV-3 ovarian) was 12.7 µM and the TGI (SK-OV-3 ovarian) was 27.6 µM. It also gave a GI50 (SN12C renal) of 3.03 µM, a TGI (SN12C renal) of 11.4 µM and a GI50 (SNB-19 CNS) of 3 µM. For the same compound, the TGI (SNB-19 CNS) was 10.9 µM, the GI50 (SNB-75 CNS) was 8.94 µM and the TGI (SNB-75 CNS) was 27.7 µM. The GI50 (SR leukemia) was 4.15 µM, the TGI (SR leukemia) was over 100 µM and the GI50 (SW-620 colon) was 2.61 µM. For the same compound, the TGI (SW-620 colon) was 13.2 µM, the GI50 (T-47D breast) was 9.57 µM and the TGI (T-47D breast) was 23.9 µM. The GI50 (TK-10 renal) was 20.8 µM, the TGI (TK-10 renal) was 48.3 µM and the GI50 (U251 CNS) was 4.16 µM. It also gave a TGI (U251 CNS) of 14.5 µM, a GI50 (UACC-257 melanoma) of 13.1 µM and a TGI (UACC-257 melanoma) of 28.2 µM. It also gave a GI50 (UACC-62 melanoma) of 2.23 µM, a TGI (UACC-62 melanoma) of 5.8 µM and a GI50 (UO-31 renal) of over 100 µM. The TGI (UO-31 renal) was over 100 µM.
